In patent EP0361954A2, “CRF Analogs” (THE SALK INSTITUTE FOR BIOLOGICAL STUDIES, priority 1988, dated 1990):
pEC50: −log10 of the molar value. Non-standard residues stand in square brackets, D forms with d. Nle = CCCC[C@H](N)C(=O)O; Nva = CCC[C@H](N)C(=O)O

Experiments:
[1] = test system: cultured rat pituitary cells; assay: Secretion of ACTH and β-endorphin by cultured rat pituitary cells (procedure of Endocrinology, 91, 562 (1972)); assay type: cell-based; conditions: for stimulation of the secretion of ACTH and β-END-LI: testing by the general procedure of Example III; for pEC50: stimulation of secretion of ACTH and β-endorphin, cultured rat pituitary cells, read-out: Half-maximal responses (concentration of the peptide)
Description: (§1) The synthetic peptide [D-Glu²⁰]-oCRF is examined for its effects on the secretion of ACTH and β-endorphin in vitro and was also in vivo. The potency of synthetic [D-Glu²⁰]-oCRF to stimulate the secretion of ACTH and β-endorphin by cultured rat pituitary cells is measured using the procedure as generally set forth in Endocrinology, 91, 562 (1972) and compared against synthetic oCRF. […] In vivo testing is carried out using the general procedure set forth in C.

[2] = In vivo testing (general procedure of C. Rivier et al., Science, 218, 377 (1982)): duration of potency and blood pressure; conditions: for lowering of blood pressure: general procedure of Example III
Description: as §1

| Compound | stimulation of the secretion of ACTH and β-END-LI [1] | lowering of blood pressure [2] | further results |
| --- | --- | --- | --- |
| H-SQEPPISLDLTFHLLRE[Nle]L[dE][Nle]AKAEQEAEQA[dH]LNRLLLEEA-NH2 [[Nle^18,21, D-Glu²⁰, D-His³²]-AHC] | stimulates the secretion of ACTH and β-END-LI | very significant lowering of blood pressure | – |
| H-SQ[dY]PPISLDLTFHLLRE[Nle]L[dE][Nva]AK[dA]EQEAEQAALNRLLLEEA-NH2 | stimulates the secretion of ACTH and β-END-LI | very significant lowering of blood pressure | – |
| H-SQEPPISLDLTFHLLREVL[dE][Nle]TK[dA]DQLAQQAHSNRKL[Nle]DIA-NH2 [[D-Glu²⁰, D-Ala²⁴, Nle^21,38]-oCRF] | – | very significant lowering of blood pressure | – |
| H-GlU-Pro-Pro-Ile-Ser-Leu-Asp-Leu-Thr-D-Phe-His-Leu-Leu-Arg-Glu-Val-Leu-D-GlU-Met-Ala-Arg-Ala-Glu-Gln-Leu-Ala-Gln-Gln-Ala-His-Ser-Asn-Arg-Lys-Leu-Met-Glu-Ile-Ile-NH₂ [[D-Phe¹², D-Glu²⁰]-rCRF(3-41)] | stimulates the secretion of ACTH and β-END-LI | very significant lowering of blood pressure | – |
| H-SQEPPISLDLTFHLREVL[dE][Nle]TKADQLAQQAHSNRKLLDIA-NH2 [[D-Glu²⁰, Nle²¹]-oCRF] | stimulates the secretion of ACTH and β-END-LI | very significant lowering of blood pressure | – |
| H-SQEPPISLDLT[dF]ELLREMLEIAKAEQEAEQAALNRKYLEEV-NH2 | stimulates the secretion of ACTH and β-END-LI | very significant lowering of blood pressure | – |
| H-Ser-Glu-Glu-pro-pro-lle-Ser-Leu-Asp-Leu-Thr-D-Phe-Glu-Leu-Leu-Arg-Glu-Nle-Leu-Glu-Met-Glu-Orn-Ala-Glu-Lys-Glu-Ala-Glu-Gln-Ala-Ala-Leu-Asn-Arg-Leu-Leu-Leu-Glu-Glu-Ala-NH₂ [[Glu^2,13,22 D-Phe¹², Nle¹⁸, Orn²³]-AHC] | stimulates the secretion of ACTH and β-END-LI | very significant lowering of blood pressure | – |
| CC[C@H](C)[C@H](NC(=O)[C@@H](NC(=O)[C@H](CC(=O)O)NC(=O)[C@H](CC(C)C)NC(=O)[C@H](CC(C)C)NC(=O)[C@H](CC(C)C)NC(=O)[C@H](CCCNC(=N)N)NC(=O)[C@H](CC(N)=O)NC(=O)[C@H](CC(N)=O)NC(=O)[C@H](C)NC(=O)[C@H](C)NC(=O)[C@H](CCC(N)=O)NC(=O)[C@H](CCC(=O)O)NC(=O)[C@H](CCCCN)NC(=O)[C@H](CCC(=O)O)NC(=O)[C@H](CCCCN)NC(=O)[C@H](CCC(=O)O)NC(=O)[C@H](CCC(N)=O)NC(=O)[C@H](CCCCN)NC(=O)[C@H](CCCNC(=N)N)NC(=O)[C@H](C)NC(=O)[C@@H](CCC(=O)O)NC(=O)[C@@H](NC(=O)[C@H](CCSC)NC(=O)[C@H](CCCCN)NC(=O)[C@H](CCCNC(=N)N)NC(=O)[C@H](CC(C)C)NC(=O)[C@H](CC(C)C)NC(=O)[C@H](CCC(=O)O)NC(=O)[C@@H](Cc1ccccc1)NC(=O)[C@H](CO)NC(=O)[C@H](CC(C)C)NC(=O)[C@H](CC(=O)O)NC(=O)[C@@H](NC(=O)[C@H](CO)NC(=O)[C@@H](NC(=O)[C@@H]1CCCN1C(=O)[C@@H]1CCCN1C(=O)CNC(=O)[C@@H]1CCC(=O)N1)[C@@H](C)CC)[C@@H](C)CC)[C@@H](C)CC)[C@@H](C)CC)C(N)=O | stimulates the secretion of ACTH and β-END-LI | very significant lowering of blood pressure | – |
| H-Ser-Gln-GluU-Pro-Pro-Ile-Ser-Leu-Asp-Leu-Thr-D-Phe-His-Leu-Leu-Arg-Glu-Val-Leu-Glu-Nle-Thr-Lys-Ala-Asp-Gln-Leu-Ala-Gln-Gln-Ala-His-Ser-Asn-Arg-Lys-Leu-Leu-Asp-Ile-Ala-NH₂ [[D-phe¹², Nle²¹ -oCRF] | stimulates the secretion of ACTH and β-END-LI | very significant lowering of blood pressure | – |
| H-SQE[dP]PISLDLT[dF]HLLRE[Nle]LE[Nle]AKAEQEAEQAAINRNLLEEA-NH2 | stimulates the secretion of ACTH and β-END-LI | very significant lowering of blood pressure | – |
| H-SQEPPISLDLT[dF]HLLREML[dE]RAKAEQEAEQAALNRLLLEEA-NH2 [[D-Phe¹², D-Glu²⁰, Arg²¹]-AHC] | stimulates the secretion of ACTH and β-END-LI | very significant lowering of blood pressure | – |
| For-Ser-GlU-GlU-Pro-Pro-Ile-Ser-Leu-Asp-Leu-Thr-D-Phe-His-Leu-Leu-Arg-Glu-Val-Leu-Glu-Nle-Ala-Arg-Ala-Glu-Gln-Leu-Ala-Gln-Gln-Ala-D-His-Ser-Asn-Arg-Lys-Leu-Nle-Glu-Ile-Ile-NH₂ | stimulates the secretion of ACTH and β-END-LI | very significant lowering of blood pressure | – |
| H-SQEPPISLDLT[dF]HLLRE[Nle]LE[Nle]AK[dA]EQEAEQAALNRLLLEEA-NH2 [[D-Phe¹², Nle^18,21, D-Ala²⁴]-AHC] | stimulates the secretion of ACTH and β-END-LI | very significant lowering of blood pressure | – |
| CC[C@H](C)[C@H](NC(=O)[C@H](CC(=O)O)NC(=O)[C@H](CC(C)C)NC(=O)[C@H](CC(C)C)NC(=O)[C@H](CCCCN)NC(=O)[C@H](CCCNC(=N)N)NC(=O)[C@H](CC(N)=O)NC(=O)[C@H](CO)NC(=O)[C@H](Cc1c[nH]cn1)NC(=O)[C@H](C)NC(=O)[C@H](CCC(N)=O)NC(=O)[C@H](CCC(N)=O)NC(=O)[C@H](C)NC(=O)[C@H](CC(C)C)NC(=O)[C@H](CCC(N)=O)NC(=O)[C@H](CC(=O)O)NC(=O)[C@H](C)NC(=O)[C@H](CCCCN)NC(=O)[C@@H](NC(=O)[C@H](CCSC)NC(=O)[C@@H](CCC(=O)O)NC(=O)[C@H](CC(C)C)NC(=O)[C@@H](NC(=O)[C@H](CCC(=O)O)NC(=O)[C@H](CCCNC(=N)N)NC(=O)[C@H](CC(C)C)NC(=O)[C@H](CC(C)C)NC(=O)[C@H](Cc1c[nH]cn1)NC(=O)[C@H](Cc1ccccc1)NC(=O)[C@@H](NC(=O)[C@H](CC(C)C)NC(=O)[C@H](CC(=O)O)NC(=O)[C@H](CC(C)C)NC(=O)[C@H](CO)NC(=O)[C@@H](NC(=O)[C@@H]1CCCN1C(=O)[C@@H]1CCCN1C(=O)[C@H](CCC(=O)O)NC(=O)[C@H](CCC(N)=O)NC(=O)[C@@H](N)CO)[C@@H](C)CC)[C@@H](C)O)C(C)C)[C@@H](C)O)C(=O)N[C@@H](C)C(N)=O [[D-Glu²⁰]-oCRF] | – | significant lowering of blood pressure | potency compared with the native hormone ([1]; in vitro, compared against synthetic oCRF / native peptides): about twice as potent as the native hormone; secretory response to maximal concentrations ([1]; maximal (1-5 nM) concentrations): at a plateau level; pEC50 [1]: ~9.77; duration of potency [2]: longer duration of potency |
| CCCC[C@H](NC(=O)[C@@H](CCC(=O)O)NC(=O)[C@H](CC(C)C)NC(=O)[C@@H](NC(=O)[C@H](CCC(=O)O)NC(=O)[C@H](CCCNC(=N)N)NC(=O)[C@H](CC(C)C)NC(=O)[C@H](CC(C)C)NC(=O)[C@H](Cc1c[nH]cn1)NC(=O)[C@H](Cc1ccccc1)NC(=O)[C@@H](NC(=O)[C@H](CC(C)C)NC(=O)[C@H](CC(=O)O)NC(=O)[C@H](CC(C)C)NC(=O)[C@H](CO)NC(=O)[C@@H](NC(=O)[C@@H]1CCCN1C(=O)[C@@H]1CCCN1C(=O)[C@H](CCC(=O)O)NC(=O)[C@H](CCC(N)=O)NC(=O)[C@@H](N)CO)[C@@H](C)CC)[C@@H](C)O)C(C)C)C(=O)N[C@H](C(=O)N[C@@H](CCCCN)C(=O)N[C@@H](C)C(=O)N[C@@H](CC(=O)O)C(=O)N[C@@H](CCC(N)=O)C(=O)N[C@@H](CC(C)C)C(=O)N[C@@H](C)C(=O)N[C@@H](CCC(N)=O)C(=O)N[C@@H](CCC(N)=O)C(=O)N[C@@H](C)C(=O)N[C@H](Cc1c[nH]cn1)C(=O)N[C@@H](CO)C(=O)N[C@@H](CC(N)=O)C(=O)N[C@@H](CCCNC(=N)N)C(=O)N[C@@H](CCCCN)C(=O)N[C@@H](CC(C)C)C(=O)N[C@@H](CC(C)C)C(=O)N[C@@H](CC(=O)O)C(=O)N[C@H](C(=O)N[C@@H](C)C(N)=O)[C@@H](C)CC)[C@@H](C)O [[D-Glu²⁰, Nle²¹, D-His³²]-oCRF] | – | very significant lowering of blood pressure | – |
| CC[C@H](C)[C@H](NC(=O)[C@H](CC(=O)O)NC(=O)[C@H](CC(C)C)NC(=O)[C@H](CC(C)C)NC(=O)[C@H](CCCCN)NC(=O)[C@H](CCCNC(=N)N)NC(=O)[C@H](CC(N)=O)NC(=O)[C@H](CO)NC(=O)[C@H](Cc1c[nH]cn1)NC(=O)[C@H](C)NC(=O)[C@H](CCC(N)=O)NC(=O)[C@H](CCC(N)=O)NC(=O)[C@H](C)NC(=O)[C@H](CC(C)C)NC(=O)[C@H](CCC(N)=O)NC(=O)[C@H](CC(=O)O)NC(=O)[C@H](C)NC(=O)[C@H](CCCCN)NC(=O)[C@@H](NC(=O)[C@H](CCSC)NC(=O)[C@H](CCC(=O)O)NC(=O)[C@H](CC(C)C)NC(=O)[C@@H](NC(=O)[C@H](CCC(=O)O)NC(=O)[C@H](CCCNC(=N)N)NC(=O)[C@H](CC(C)C)NC(=O)[C@H](CC(C)C)NC(=O)[C@H](Cc1c[nH]cn1)NC(=O)[C@H](Cc1ccccc1)NC(=O)[C@@H](NC(=O)[C@H](CC(C)C)NC(=O)[C@H](CC(=O)O)NC(=O)[C@H](CC(C)C)NC(=O)[C@H](CO)NC(=O)[C@@H](NC(=O)[C@@H]1CCCN1C(=O)[C@@H]1CCCN1C(=O)[C@H](CCC(=O)O)NC(=O)[C@H](CCC(N)=O)NC(=O)[C@@H](N)CO)[C@@H](C)CC)[C@@H](C)O)C(C)C)[C@@H](C)O)C(=O)N[C@@H](C)C(N)=O [oCRF, reference compound] | – | – | pEC50 [1]: ~9.60 |
| Acr-Glu-Glu-Pro-Pro-Ile-Ser-Leu-Asp-Leu-Thr-D-Phe-His-Leu-Leu-Arg-Glu-Val-Leu-Glu-Nle-Ala-Arg-Ala-Glu-Gln-Leu-Ala-Gln-Gln-Ala-D-His-Ser-Asn-Arg-Lys-Leu-NIe-Glu-Ile-Ile-NH₂ | stimulates the secretion of ACTH and β-END-LI | very significant lowering of blood pressure | – |
